Measured values as given in patent US20030170643A1, “Regulation of apoB treatment and drug screening for cardiovascular and metabolic disorders or syndromes” (priority 1999, published 2003).

Molecular target: T1, MTP (Rattus norvegicus, UniProt D4A1W8)
T1 construct: endogenous in cells; host or cells: rat primary hepatocytes (male Sprague-Dawley), cell lysate
T1 sequence (D4A1W8 22-896): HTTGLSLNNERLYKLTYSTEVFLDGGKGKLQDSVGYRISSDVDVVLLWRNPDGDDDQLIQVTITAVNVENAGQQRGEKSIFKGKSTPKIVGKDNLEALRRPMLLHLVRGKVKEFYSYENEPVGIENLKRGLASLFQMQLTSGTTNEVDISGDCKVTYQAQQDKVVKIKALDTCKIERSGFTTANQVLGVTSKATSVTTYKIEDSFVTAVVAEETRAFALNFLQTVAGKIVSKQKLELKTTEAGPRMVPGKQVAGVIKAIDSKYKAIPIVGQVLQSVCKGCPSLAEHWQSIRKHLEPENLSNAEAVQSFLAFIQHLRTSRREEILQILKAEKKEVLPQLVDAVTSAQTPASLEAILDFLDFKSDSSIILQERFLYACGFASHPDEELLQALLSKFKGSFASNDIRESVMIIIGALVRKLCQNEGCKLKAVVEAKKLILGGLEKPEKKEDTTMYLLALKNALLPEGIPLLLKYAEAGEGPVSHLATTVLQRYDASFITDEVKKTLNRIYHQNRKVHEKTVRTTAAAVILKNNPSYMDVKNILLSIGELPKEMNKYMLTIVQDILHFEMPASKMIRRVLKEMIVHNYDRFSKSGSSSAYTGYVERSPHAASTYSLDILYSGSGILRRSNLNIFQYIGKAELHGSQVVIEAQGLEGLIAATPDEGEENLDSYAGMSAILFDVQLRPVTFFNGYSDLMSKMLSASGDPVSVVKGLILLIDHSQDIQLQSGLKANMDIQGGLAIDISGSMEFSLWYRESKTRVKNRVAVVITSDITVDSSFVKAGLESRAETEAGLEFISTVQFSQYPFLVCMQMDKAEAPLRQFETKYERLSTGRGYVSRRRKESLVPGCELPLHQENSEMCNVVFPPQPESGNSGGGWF
T1 sequence (P04785 20-509 partner): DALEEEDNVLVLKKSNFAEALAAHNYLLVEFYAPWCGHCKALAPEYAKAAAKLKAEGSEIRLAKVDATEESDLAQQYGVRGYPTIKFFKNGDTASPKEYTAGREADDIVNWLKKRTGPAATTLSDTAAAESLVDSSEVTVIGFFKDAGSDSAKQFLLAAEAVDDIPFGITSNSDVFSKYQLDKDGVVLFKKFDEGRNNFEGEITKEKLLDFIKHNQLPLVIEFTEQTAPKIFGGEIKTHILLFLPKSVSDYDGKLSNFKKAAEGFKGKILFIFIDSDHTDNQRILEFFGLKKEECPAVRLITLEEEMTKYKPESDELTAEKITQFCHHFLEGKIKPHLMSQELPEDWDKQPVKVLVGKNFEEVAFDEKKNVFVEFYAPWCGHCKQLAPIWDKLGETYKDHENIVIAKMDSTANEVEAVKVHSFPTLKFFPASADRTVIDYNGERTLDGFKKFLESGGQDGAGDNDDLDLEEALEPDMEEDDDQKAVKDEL
Test: MTP activity in lysates of fatty acid-pretreated rat primary hepatocytes
Assay type: biochemical
Details: hepatocytes pre-treated 6 hr with BSA, OA or EPA
Method: Three methods were used to assess possible effects of Ω-3 fatty acids on cellular MTP function. First, rat primary hepatocytes were incubated with BSA, OA, or EPA, and then MTP activity in cell lysates was measured using a fluorescent assay (Roar Biomedical, New York, NY). Second, to determine if lipid classes synthesized in the presence of OA or Ω-3 fatty acid are equivalent substrates for MTP, primary rat hepatocytes or HepG2 cells were incubated with tritiated OA or EPA, total cellular lipids were extracted into isopropanol, and biosynthetically labeled cholesteryl ester, triglyceride, and phospholipids were separated by preparative thin layer chromatography. […] Transfer of the labeled lipids to acceptor vesicles in the presence of 50 μg of purified bovine MTP was measured as described in Jamil, H. et al (1995) J Biol Chem 270(12), 6549-54.
First, it was necessary to test the possibility that Ω-3 fatty acids stimulate apob degradation by impeding MTP-dependent early lipidation, thereby targeting apoB to proteasomes. Rat primary hepatocytes were pre-treated for 6 hr with BSA, OA, or EPA, and then the MTP activity in lysates of these cells was assessed using artificial donor and acceptor vesicles, with [^14C]triolein as the MTP substrate, as described in Jamil, H. et al. (1995) J Biol Chem 270(12), 6549-54.

## CCCCCCCC/C=C\CCCCCCCC(=O)O [OA, oleic acid]
  MTP-mediated transfer of labeled triolein in cell lysates: No difference
